According to ChEMBL document CHEMBL1139605, “Novel ketal ligands for the glucocorticoid receptor: in vitro and in vivo activity” (Bioorg Med Chem Lett, 2005):

Assays:
[1] = tested on: A549; assay: Effective concentration for inhibition of interleukin-6 in human A549 lung carcinoma cell line using 47% radiolabeled Dexamethasone; assay type: functional, cell-based
[2] = species on record: Mus musculus; assay: Effective concentration required for inhibition of interleukin-6 in mouse thioglycolate-elicited peritoneal exudate cell line using 57% radiolabeled Dexamethasone; assay type: functional
[3] = target: T1, Glucocorticoid receptor (Homo sapiens, UniProt P04150); assay: Inhibition of human glucocorticoid receptor alpha isoform
T1 sequence (P04150 whole entry): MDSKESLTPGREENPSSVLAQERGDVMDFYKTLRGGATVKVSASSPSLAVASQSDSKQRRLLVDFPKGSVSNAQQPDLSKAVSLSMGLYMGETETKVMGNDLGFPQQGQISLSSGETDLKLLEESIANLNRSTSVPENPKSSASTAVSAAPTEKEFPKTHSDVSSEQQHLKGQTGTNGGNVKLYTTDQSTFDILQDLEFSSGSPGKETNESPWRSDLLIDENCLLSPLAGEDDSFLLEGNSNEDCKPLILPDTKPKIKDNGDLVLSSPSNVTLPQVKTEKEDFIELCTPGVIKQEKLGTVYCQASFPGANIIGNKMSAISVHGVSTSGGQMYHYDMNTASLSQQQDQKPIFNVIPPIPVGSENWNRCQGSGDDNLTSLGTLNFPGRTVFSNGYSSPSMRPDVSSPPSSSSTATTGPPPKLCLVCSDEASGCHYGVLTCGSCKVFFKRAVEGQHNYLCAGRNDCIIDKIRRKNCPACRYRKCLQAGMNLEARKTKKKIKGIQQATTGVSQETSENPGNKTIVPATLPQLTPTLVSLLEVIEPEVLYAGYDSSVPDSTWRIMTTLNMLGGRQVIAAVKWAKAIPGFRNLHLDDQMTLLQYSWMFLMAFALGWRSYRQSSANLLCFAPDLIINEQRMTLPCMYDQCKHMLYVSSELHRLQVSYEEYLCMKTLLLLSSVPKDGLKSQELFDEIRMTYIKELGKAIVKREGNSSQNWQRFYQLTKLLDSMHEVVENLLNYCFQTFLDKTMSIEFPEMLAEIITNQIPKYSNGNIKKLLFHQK

- EC50 [1]: 25 nM
- EC50 [2]: 183 nM
- IC50 [3]: 5.6 nM
Compound: C=C[C@H]1CO[C@]2(CCC3=Cc4c(cnn4-c4ccc(F)cc4)C[C@@]32C)O1
